Measured values published in PubChem BioAssay (NCI).
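Values below derive from 48-hour exposures of cells grown in 96-well plates, with endpoints linearly interpolated between the two concentrations bracketing the appropriate inhibition level. Here, GI50 denotes the concentration required for 50% inhibition of growth. Definition used: TGI = concentration required for complete inhibition of growth.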

Legend:
Test in all cases: DTP human tumour cell line panel, 48 h
SNB-75 CNS = tested on: SNB-75 CNS
MALME-3M melanoma = tested on: MALME-3M melanoma
HS 578T breast = tested on: HS 578T breast
SK-MEL-5 melanoma = tested on: SK-MEL-5 melanoma
M14 melanoma = tested on: M14 melanoma
SK-OV-3 ovarian = tested on: SK-OV-3 ovarian
HCC-2998 colon = tested on: HCC-2998 colon
OVCAR-8 ovarian = tested on: OVCAR-8 ovarian
NCI/ADR-RES ovarian = tested on: NCI/ADR-RES ovarian
MCF7 breast = tested on: MCF7 breast

SMILES | GI50 (SNB-75 CNS) | TGI (SNB-75 CNS) | GI50 (MALME-3M melanoma) | TGI (MALME-3M melanoma) | GI50 (HS 578T breast) | TGI (HS 578T breast) | GI50 (SK-MEL-5 melanoma) | TGI (SK-MEL-5 melanoma) | GI50 (M14 melanoma) | TGI (M14 melanoma) | GI50 (SK-OV-3 ovarian) | TGI (SK-OV-3 ovarian) | GI50 (HCC-2998 colon) | TGI (HCC-2998 colon) | GI50 (OVCAR-8 ovarian) | TGI (OVCAR-8 ovarian) | GI50 (NCI/ADR-RES ovarian) | TGI (NCI/ADR-RES ovarian) | GI50 (MCF7 breast) | TGI (MCF7 breast)
O=C(Nc1ccc(Br)cc1)Nc1n[nH]c2ccccc12 | 34.4 µM | > 82.7 µM | > 19.7 µM | > 100 µM | 46.8 µM | > 100 µM | > 88.7 µM | > 100 µM | > 100 µM | > 100 µM | > 33.7 µM | > 100 µM | > 100 µM | > 100 µM | 71.2 µM | > 100 µM | > 100 µM | > 100 µM | 42.1 µM | > 100 µM
O=C(Nc1cc(C(F)(F)F)ccc1F)Nc1n[nH]c2ccccc12 | 40.1 µM | > 100 µM | > 100 µM | > 100 µM | > 100 µM | > 100 µM | > 100 µM | > 100 µM | > 100 µM | > 100 µM | > 100 µM | > 100 µM | > 100 µM | > 100 µM | > 100 µM | > 100 µM | > 100 µM | > 100 µM | 18.2 µM | > 100 µM
COc1cc(OC)c2c(=O)c(O)c(-c3ccc(OC)c(OC)c3)oc2c1 |  | > 100 µM |  | > 31.6 µM |  | 70.9 µM |  | > 100 µM |  | > 31.6 µM |  | > 100 µM |  | 9.34 µM |  | > 100 µM |  | 17.5 µM |  | > 31.6 µM
CC(ONC(=O)c1cc(C(F)(F)F)cc(C(F)(F)F)c1)C(=O)Nc1ccc(Cl)cc1 (stereo not given) | 15 µM | 70.7 µM | 3.83 µM | 13.6 µM | 5.43 µM | 42.4 µM | 2.79 µM | 7.86 µM | 7.46 µM | 25.3 µM | 12.9 µM | > 85.8 µM | 4.16 µM | 17 µM | 6.2 µM | > 62.1 µM | 6.2 µM | 41.6 µM | 3.38 µM | 16.5 µM
Cn1c(=O)cc2c3c(c(NCCCO)ccc31)C(=O)c1ccccc1-2 | 4.36 µM | > 100 µM | 2.12 µM | 7.35 µM | 3.68 µM | > 100 µM | 3.97 µM | > 100 µM | 3.13 µM | > 100 µM | 9.81 µM | > 100 µM | 5.23 µM | > 100 µM | 1.48 µM | > 100 µM | 5.2 µM | > 100 µM | 3.46 µM | > 100 µM
COc1ccc(C(O)CNC(=O)c2ccccc2)cc1 (stereo not given) |  | > 100 µM |  | > 100 µM |  | > 100 µM |  | > 100 µM |  | > 100 µM |  | > 100 µM |  | > 100 µM |  | > 100 µM |  | > 100 µM |  | > 100 µM
